Experimental data as given in paper PMC8047011, “Enantiomers of 2-methylglutamate and 2-methylglutamine selectively impact mouse brain metabolism and behavior” (Scientific Reports, 2021).

What was measured:
C57Bl/6 mice [1] = test: Y maze spontaneous alternation; assay type: in vivo, mouse; conditions: chronic 10 mg/kg/day IP, week 2 of testing
Text: Y Maze Spontaneous Alternation: The Y maze is made of plastic with 3 arms in a "Y" shape.
The arms are labelled as Arm A, B, and C; Arm A is 20.32 cm (L) x 5 cm (W) 12.7 cm (H), Arm B and C are 15.24 cm (L) x 5 cm (W), and 12.7 cm (H). The test is based on the willingness of rodents to explore a novel environment and designed to measure spontaneous alternations in rodents. Each mouse was placed in the center of the maze facing Arm B. The first entry was excluded from data analysis because the animals were led to the initial arm entry by the experimenter. Using an overhead camera, the number of arm entries and alternations were recorded for 5 minutes. An arm entry is when all four paws enter into a new arm of the maze.
The apparatus was cleaned with 1% Virkon. Parameters recorded were % alternation and the total number of entries into arms. […]

C57Bl/6 mice [2] = test: Activity chamber open field; assay type: in vivo, mouse; conditions: for Distance moved in the activity chamber vs vehicle: n = 6; for Distance moved in the activity chamber: chronic 10 mg/kg/day IP, after one week
Text: See Supplementary Methods for details. […]
Activity Chamber Open Field: Assessment was made in an Open Field Activity Arena (Med Associates Inc., St. Albans, VT. Model ENV-515) mounted with three planes of infrared detectors within a specially designed sound-attenuating chamber (Med Associates Inc., St.
Albans, VT. MED-017M-027). The arena was 43 cm (L) x 43 cm (W) x 30 cm (H) and the […]
in the periphery and center of the Arena. […]
without bedding, and in a sound isolating chamber. The activity chamber measures distance moved using infrared beams and without video recordings. […]
were used in the study. The animals were housed as described above.
The first dose was administered […]
described above for 30 min.

C57Bl/6 mice [3] = test: Chronic low dose exposure, mortality and body weight; conditions: 10 mg/kg/day IP for a month
Description: Behavioral tests were performed on 2 month-old, male, C57Bl/6 mice. We selected male mice because SBFNL historical controls are male mice. First, we assessed safety and tolerability of acute exposure to our novel chemicals through the following sequence of tests immediately following IP injection: maximum tolerated dose with novel cage observation at 100, 300, or 900 mg/kg, and then SHIRPA, activity chamber, and then hot plate latency using 100 or 30 mg/kg IP in different drug naïve mice. […] Animals were dosed daily from 3 to 5 PM after the conclusion of each behavioral testing session. […] See Supplementary Methods for details. […]
sound-attenuating chamber was 74 cm (L) x 60 cm (W) x 60 cm (H). The mice were placed in the corner of the testing arena and allowed to explore the arena for 60 min while being tracked automatically. Parameters measured include distance moved, velocity, rearing, and times spent in the periphery and center of the Arena. Periphery was defined as the zone 5 cm away from the arena wall. The Arena was cleaned with a 1% Virkon solution at the end of the trial.
The novel cage observation (vide supra) and activity chamber open field assessment are not […]
outcome. The novel cage protocol is conducted on the benchtop in a lighted room using a clean home cage, and tests habituation using video recording and scoring of behavioral performance.
Moreover, the novel cage allows the tester to visualize any other side effects such as seizure or repetitive jumping. The activity chamber is in an enclosed box, and the test is done in the dark, without bedding, and in a sound isolating chamber. The activity chamber measures distance moved using infrared beams and without video recordings.
In vivo animal studies; Chronic Efficacy Study using C57Bl/6J mice
Animal: Two month-old, naïve male C57Bl/6 mice from Jackson Laboratory (Stock ID# 000664) were used in the study. The animals were housed as described above.
Dosing: (R)-2MeGlu (10 mg/kg), (S)-2MeGlu (10 mg/kg), rac-2MeGln (10 mg/kg), and vehicle (PBS) were administered IP at 10 ml/kg dosing volume daily. […]

C57Bl/6 mice [4] = test: Elevated plus maze; assay type: in vivo, mouse; conditions: chronic 10 mg/kg/day IP, week 1 of testing
Text: See Supplementary Methods for details.
Elevated Plus Maze: The maze was made of acrylonitrile butadiene styrene (ABS) plastic and had two open arms and two close arms that were 30 cm long and 5 cm wide. The center area where the open and close arms meet was 5 cm x 5 cm. The open arms had 2 mm lips at the edges, and the closed arms had 15 cm opaque walls. The maze was elevated 50 cm and surrounded by privacy blinds during the test. The maze was illuminated to 7 lux using red light throughout the test. Each mouse was released in the center of the maze and given 5 min to explore the maze. Duration and frequency in each zone of the maze were recorded using Ethovision (Noldus Information Technology, Wageningen, the Netherlands) tracking software. […]

Question: Which “Spontaneous alternation in the Y maze” value (C57Bl/6 mice [1]) does the source give for CC(N)(CCC(N)=O)C(=O)O (racemic) [rac-2MeGln, rac-2-methylglutamine] here?
Answer: no significant effect of treatment

Question: And the “Distance moved in the activity chamber vs vehicle” value (“Distance moved … vs vehicle” for short) (C57Bl/6 mice [2]; acute 30 mg/kg IP)?
Answer: modest but significant reduction in distance moved only at 11 min post injection

Question: And the “Distance moved … vs vehicle” value (C57Bl/6 mice [2]; acute 100 mg/kg IP)?
Answer: not significantly different from vehicle at any time point

Question: And the “Distance moved in the activity chamber” value (C57Bl/6 mice [2])?
Answer: no significant effect of treatment

Question: What about the “Body weight over the month” value (C57Bl/6 mice [3]) of the same molecule?
Answer: no significant effect of treatment

Question: What about the “Time spent in the open arms in the elevated plus maze” value (C57Bl/6 mice [4]) of the same molecule?
Answer: no significant effect of treatment

Question: What does the source list for C[C@](N)(CCC(=O)O)C(=O)O [(S)-2MeGlu, (S)-2-methylglutamic acid]?
Answer: Spontaneous alternation in the Y maze (C57Bl/6 mice [1]): no significant effect of treatment; Distance moved in the activity chamber vs vehicle (C57Bl/6 mice [2]; acute 30 mg/kg IP): not significantly different; Distance moved in the activity chamber vs vehicle (C57Bl/6 mice [2]; acute 100 mg/kg IP): significantly reduced; Distance moved in the activity chamber (C57Bl/6 mice [2]): no significant effect of treatment; Body weight over the month (C57Bl/6 mice [3]): no significant effect of treatment; Time spent in the open arms in the elevated plus maze (C57Bl/6 mice [4]): no significant effect of treatment

Question: C[C@@](N)(CCC(=O)O)C(=O)O [(R)-2MeGlu, (R)-2-methylglutamic acid] was tested. Which “Spontaneous alternation in the Y maze” value (C57Bl/6 mice [1]) did it give?
Answer: no significant effect of treatment

Question: What about the “Distance moved … vs vehicle” value (C57Bl/6 mice [2]; acute 30 mg/kg IP) of the same molecule?
Answer: modest but significant reduction in distance moved only at 11 min post injection

Question: What about the “Distance moved … vs vehicle” value (C57Bl/6 mice [2]; acute 100 mg/kg IP) of the same molecule?
Answer: significantly reduced

Question: And the “Distance moved in the activity chamber” value (C57Bl/6 mice [2])?
Answer: no significant effect of treatment

Question: What about the “Body weight over the month” value (C57Bl/6 mice [3]) of the same molecule?
Answer: no significant effect of treatment

Question: What about the “Time spent in the open arms in the elevated plus maze” value (C57Bl/6 mice [4]) of the same molecule?
Answer: no significant effect of treatment
